Where “and” joins values, the source holds several entries; their conditions need not be identical. Equal values may be shown once.
Assays:
T. cruzi amastigote DNA = experiment: Incorporation of pyrimidine nucleoside analogues into T. cruzi amastigote DNA (click chemistry, colocalisation with Hoechst); type: cell-based, Trypanosoma cruzi
Method: T. cruzi infected 3T3 fibroblasts were initially exposed to nucleoside analogues for 48 hours at concentrations ranging from 73 μM to 1.8 x10^-4 μM. Host cell, parasite and compound additions were carried out as previously described. Cells were then stained using a click chemistry azide cocktail, followed by Hoechst to identify nuclear material, as previously reported. The freshly prepared azide cocktail consisted of a final concentration of 5 μM of Alexa Fluor 488 azide (Thermo Fisher Scientific, USA), 1 mM copper sulfate (Sigma Aldrich, USA) and 100 mM sodium ascorbate (Sigma Aldrich, USA), in DPBS. Wells were imaged on an Opera image-based reader (Perkin Elmer, USA) at 20x magnification with 405 nm (defined as Hoechst channel) and 488 nm (defined as Alexa 488 channel) lasers using filter sets/bandwidth (emission) of 450/50 nm and 540/75 nm, respectively. To determine nucleoside analogue incorporation into T. cruzi amastigote DNA, a script was developed utilising the Columbus (PerkinElmer, USA) image-based analysis and data handling platform (CHEMICAL LABEL INCORPORATION SCRIPT). Nucleoside analogues were also tested for DNA incorporation following 2, 4 and 24 hours exposure, at the same concentrations. All experiments were performed in duplicate. The colocalisation of nucleoside analogues and Hoechst (replicating parasites) at each time point (48, 4 and 2 hours) was compared using GraphPad Prism 5.
A CHEMICAL LABEL INCORPORATION SCRIPT developed in Columbus firstly identified Hoechst stained parasites within host cells by spot analysis, utilizing the same building block analysis as we had previously developed to determine T. cruzi infected cells. The physical definition of amastigote DNA was identified by Hoechst, with the only modification being that as there was no cytoplasmic marker, thus segmentation borders in the Hoechst channel were applied, which effectively separated host cells (Fig 2). Further building blocks were added to calculate the intensity of Alexa Fluor 488 within the spots identified by Hoechst, in infected cells. This script was first applied to images to determine the mean fluorescence intensity in the Alexa 488 channel of Hoechst identified parasites, without the addition of the chemical label. The mean plus three times the standard deviation of this intensity was used to define values above background, thus the minimum intensity above background required to identify parasite DNA which successfully incorporated the chemical label. An input box was incorporated into the script, in which this minimum intensity above background was entered. Parameters of the developed script, “CHEMICAL LABEL INCORPORATION” are shown in S1 Table.
• Number of T. cruzi amastigote infected cells (≥5 parasites per cell, identified with Hoechst). • Number of Hoechst identified T. cruzi parasites (in infected cells). • Number of parasites incorporating chemical label (T. cruzi parasites with Alexa 488 intensity above background, in infected cells). • % chemical label incorporation. Alexa 488 spots in infected cells (above background) NO / Hoechst spots in infected cells NO *100 = Percentage colocalisation; where NO = number of objects. • Number of host cells.

[1] = tested on: T. cruzi intracellular amastigotes; experiment: Image-based assay of the number of T. cruzi infected cells (intracellular amastigotes in 3T3 host cells); type: cell-based, Trypanosoma cruzi; conditions: 2 and 4 hour exposures; 73 μM
L. donovani = tested on: L. donovani; design: method as in PMID 27021313; conditions: 72 hours incubation; cited from earlier work

Which results are given for `C#Cc1cn([C@H]2C[C@H](O)[C@@H](CO)O2)c(=O)[nH]c1=O` [EdU, 5-ethynyl-2′-deoxy-uridine]?
% incorporation into T. cruzi DNA (T. cruzi amastigote DNA; 2 hours, 1.8 μM): 75 ± 3.6%; % of Hoechst defined T. cruzi cells with incorporation (T. cruzi amastigote DNA; 4 hours, 0.37 μM): 89 ± 4.8%; % of cells with incorporation (T. cruzi amastigote DNA; 48 hours exposure, 0.018 μM): 72 ± 1.09%; % of cells containing Alexa Fluor 488 labelled DNA (incorporation) (T. cruzi amastigote DNA; 48 hours exposure, 0.037 μM): 93.1 ± 2.8%; highest incorporation (T. cruzi amastigote DNA; 48 hours exposure, 0.073 μM): 94 ± 2.5% and 94%; incorporation into T. cruzi DNA following 48 hours incubation (in words) (T. cruzi amastigote DNA; 48 hours incubation): incorporated; activity against T. cruzi amastigote growth after short exposure [1]: less than 20%; toxicity toward L. donovani (L. donovani): lack of toxicity

Reference: publication PMC7112222, “Investigation of pyrimidine nucleoside analogues as chemical probes to assess compound effects on the proliferation of Trypanosoma cruzi intracellular parasites” (PLoS Neglected Tropical Diseases, 2020)
